Measured values as given in paper PMC11423540, “Synthesis and biological evaluation of ortho-phenyl phenylhydroxamic acids containing phenothiazine with improved selectivity for class IIa histone deacetylases” (Journal of Enzyme Inhibition and Medicinal Chemistry, 2024).

Legend:
SCC2095 cells = test: ROS determination by flow cytometry (DCFH-DA probe); type: cell-based, human; conditions: SCC2095, 12 h or 24 h
Description: Cells (2 × 10^5) were treated with tested compounds in 6-well plates for 24 h or 48 h, then washed with ice-cold PBS twice and harvested with trypsin. Cells were incubated with 5 µL Annexin V- FITC/PI (BD Pharmingen, San Diego) for 15 min in the dark condition. Then, the cells were measured by BD FACSCanto flow cytometer (BD, Franklin Lakes, NJ). For ROS determination, DMSO or H2O2 or compound 7 g-treated cells were stained with the ROS probe (DCFH-DA; 5 µM) and detected the DCFH-DA fluorescence.

HDAC7 = target: T1, HDAC7 (Homo sapiens, UniProt Q8WUI4); test: HDAC inhibition assay, HDAC7
T1 sequence (Q8WUI4 1-952): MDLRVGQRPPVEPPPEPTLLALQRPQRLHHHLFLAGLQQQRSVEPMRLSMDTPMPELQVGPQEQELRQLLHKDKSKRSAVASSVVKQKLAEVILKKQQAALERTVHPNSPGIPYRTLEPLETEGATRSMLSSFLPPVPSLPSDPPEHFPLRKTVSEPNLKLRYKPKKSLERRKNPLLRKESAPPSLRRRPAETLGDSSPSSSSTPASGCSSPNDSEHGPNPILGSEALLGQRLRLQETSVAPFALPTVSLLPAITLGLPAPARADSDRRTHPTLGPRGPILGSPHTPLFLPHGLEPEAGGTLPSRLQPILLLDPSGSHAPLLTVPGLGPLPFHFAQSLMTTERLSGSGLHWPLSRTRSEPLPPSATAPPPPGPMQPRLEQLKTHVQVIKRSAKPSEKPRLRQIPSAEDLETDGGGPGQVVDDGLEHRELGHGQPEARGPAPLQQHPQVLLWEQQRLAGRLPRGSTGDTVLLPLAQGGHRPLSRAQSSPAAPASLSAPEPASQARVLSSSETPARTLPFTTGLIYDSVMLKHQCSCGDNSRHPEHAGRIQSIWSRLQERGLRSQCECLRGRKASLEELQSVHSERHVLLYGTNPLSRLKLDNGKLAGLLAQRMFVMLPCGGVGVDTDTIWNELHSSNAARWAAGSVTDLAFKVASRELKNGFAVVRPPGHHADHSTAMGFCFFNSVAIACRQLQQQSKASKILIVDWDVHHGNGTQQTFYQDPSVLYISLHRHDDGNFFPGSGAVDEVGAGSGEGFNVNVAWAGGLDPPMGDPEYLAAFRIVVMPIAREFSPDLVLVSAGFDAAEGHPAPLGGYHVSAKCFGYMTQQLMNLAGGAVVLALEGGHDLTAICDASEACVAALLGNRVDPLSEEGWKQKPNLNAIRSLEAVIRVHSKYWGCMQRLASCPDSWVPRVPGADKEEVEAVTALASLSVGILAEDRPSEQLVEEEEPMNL

HDAC6 = target: T2, HDAC6 (Homo sapiens, UniProt Q9UBN7); test: HDAC inhibition assay, HDAC6
T2 sequence (Q9UBN7 1-1215): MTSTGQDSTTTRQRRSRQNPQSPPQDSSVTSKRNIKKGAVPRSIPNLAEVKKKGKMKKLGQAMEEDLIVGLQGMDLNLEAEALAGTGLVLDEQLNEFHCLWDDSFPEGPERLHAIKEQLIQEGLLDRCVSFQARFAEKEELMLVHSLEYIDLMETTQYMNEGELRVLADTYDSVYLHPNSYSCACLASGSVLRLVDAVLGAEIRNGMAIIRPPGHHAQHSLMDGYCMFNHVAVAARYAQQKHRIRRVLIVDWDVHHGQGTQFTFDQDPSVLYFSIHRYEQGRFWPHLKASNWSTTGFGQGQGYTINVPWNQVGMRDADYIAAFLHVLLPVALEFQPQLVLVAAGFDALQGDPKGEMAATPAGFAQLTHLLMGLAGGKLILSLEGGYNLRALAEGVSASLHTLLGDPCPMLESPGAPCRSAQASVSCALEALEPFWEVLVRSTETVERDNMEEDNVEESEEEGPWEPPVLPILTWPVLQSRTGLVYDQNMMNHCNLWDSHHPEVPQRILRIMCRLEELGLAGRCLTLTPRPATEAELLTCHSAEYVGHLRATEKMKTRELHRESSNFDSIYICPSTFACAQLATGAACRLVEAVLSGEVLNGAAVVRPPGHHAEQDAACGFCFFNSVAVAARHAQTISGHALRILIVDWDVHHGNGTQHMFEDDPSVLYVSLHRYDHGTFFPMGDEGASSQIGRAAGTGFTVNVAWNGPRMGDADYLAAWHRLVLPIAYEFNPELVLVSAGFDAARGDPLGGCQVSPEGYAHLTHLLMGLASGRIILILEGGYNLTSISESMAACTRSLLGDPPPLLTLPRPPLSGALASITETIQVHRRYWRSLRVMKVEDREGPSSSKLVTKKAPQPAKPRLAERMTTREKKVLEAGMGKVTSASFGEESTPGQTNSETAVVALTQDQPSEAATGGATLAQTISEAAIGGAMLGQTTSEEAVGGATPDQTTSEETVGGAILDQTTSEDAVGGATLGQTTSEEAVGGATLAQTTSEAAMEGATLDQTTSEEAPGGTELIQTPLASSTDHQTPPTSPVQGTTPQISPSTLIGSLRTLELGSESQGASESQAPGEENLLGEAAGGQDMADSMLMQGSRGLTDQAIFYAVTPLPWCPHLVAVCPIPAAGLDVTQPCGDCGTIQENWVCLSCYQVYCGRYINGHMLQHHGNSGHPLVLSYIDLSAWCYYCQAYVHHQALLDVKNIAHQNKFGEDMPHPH

HeLa nuclear HDACs = test: HDAC inhibition assay, HeLa nuclear extract (mixture of class I HDACs 1, 2, and 3); conditions: read-out: IC50 HeLa nuclear HDACs, Boc-Lys-(AMC) substrate
HDAC8 = target: T3, HDAC8 (Homo sapiens, UniProt Q9BY41); test: HDAC inhibition assay, HDAC8
T3 sequence (Q9BY41 1-377): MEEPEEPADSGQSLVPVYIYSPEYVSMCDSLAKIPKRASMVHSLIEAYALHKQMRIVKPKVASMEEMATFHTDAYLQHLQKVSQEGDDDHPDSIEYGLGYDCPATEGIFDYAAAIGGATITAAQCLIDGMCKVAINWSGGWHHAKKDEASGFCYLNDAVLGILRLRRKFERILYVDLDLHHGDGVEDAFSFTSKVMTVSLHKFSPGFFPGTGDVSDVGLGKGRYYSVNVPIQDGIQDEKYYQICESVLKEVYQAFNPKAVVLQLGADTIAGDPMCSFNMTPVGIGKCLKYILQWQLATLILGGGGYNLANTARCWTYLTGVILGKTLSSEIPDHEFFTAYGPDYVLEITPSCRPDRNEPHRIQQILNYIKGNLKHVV

- IC50 (HDAC7): 0.19 ± 0.04 µM
- IC50 (HDAC6): 0.97 ± 0.05 µM
- IC50 (HeLa nuclear HDACs): > 40 µM
- IC50 (HDAC8): 1.95 µM
Structure (SMILES): NC(=NO)c1ccc2c(c1)N(Cc1ccc(C(=O)NO)c(-c3ccccc3)c1)c1ccccc1S2 [Compound 7g, N-Hydroxy-4-[2-(N’-hydroxycarbamimidoyl)-10H-phenothiazin-10-yl]methyl-2-phenylbenzamide]
- ROS generation (SCC2095 cells): increased
